Reference: patent US8445457B2, “Oral pharmaceutical solutions containing telbivudine” (Novartis AG, priority 2007, dated 2013)

Test: Pre-formulation telbivudine stability versus pH at elevated temperature
Assay type: physicochemical
Details: investigated pH 2-9, 50° C., from assay and thymine content
Method: During pre-formulation, telbivudine stability is investigated within a range of pH from 2-9, at elevated temperature 50° C. […] The pH of the oral solution is a highly relevant parameter, due to the influence pH on the retardation of microbial growth in the solution during storage.

- pH range optimal for drug substance stability: 3-9
SMILES: Cc1cn([C@@H]2C[C@@H](O)[C@H](CO)O2)c(=O)[nH]c1=O [telbivudine, β-L-thymidine/2′-deoxy-L-thymidine]
